Laboratory results published in ChEMBL document CHEMBL1201862, “PubChem BioAssay data set” (2004).
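Briefly, cells in 96-well plates were exposed to five compound concentrations for 48 h, and endpoints were estimated by linear interpolation. GI50 = concentration required for 50% inhibition of growth.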 Calls of active or inactive are those of the source. Rule as the data show it: active = GI50 up to about 1.1 µM and inactive = higher.

Assays:
Test in all cases: NCI anticancer screen, dose series, 48 h
COLO 205 = test system: COLO 205
CCRF-CEM = test system: CCRF-CEM
M14 = test system: M14
SW-620 = test system: SW-620
UACC-257 = test system: UACC-257
UO-31 = test system: UO-31
HOP-92 = test system: HOP-92
786-0 = test system: 786-0
NCI-H23 = test system: NCI-H23
KM-20L2 = test system: KM-20L2
LXFL 529 = test system: LXFL 529
CAKI-1 = test system: CAKI-1
ACHN = test system: ACHN
SF-539 = test system: SF-539
NCI-H460 = test system: NCI-H460
RPMI-8226 = test system: RPMI-8226
RXF 393 = test system: RXF 393
SNB-78 = test system: SNB-78
DMS-114 = test system: DMS-114
K562 = test system: K562
EKVX = test system: EKVX
HL-60 = test system: HL-60
SR = test system: SR
UACC-62 = test system: UACC-62
HOP-62 = test system: HOP-62
HCC 2998 = test system: HCC 2998
M19-MEL = test system: M19-MEL
OVCAR-8 = test system: OVCAR-8
MOLT-4 = test system: MOLT-4
DMS-273 = test system: DMS-273
HT-29 = test system: HT-29
HCT-116 = test system: HCT-116
SNB-75 = test system: SNB-75
SK-MEL-2 = test system: SK-MEL-2
SK-OV-3 = test system: SK-OV-3
SK-MEL-28 = test system: SK-MEL-28
KM12 = test system: KM12
IGROV-1 = test system: IGROV-1
HOP-18 = test system: HOP-18
OVCAR-3 = test system: OVCAR-3
U-251 = test system: U-251
A498 = test system: A498
HCT-15 = test system: HCT-15
A549 = test system: A549
SNB-19 = test system: SNB-19
XF498 = test system: XF498
SF-295 = test system: SF-295
OVCAR-4 = test system: OVCAR-4
SN12C = test system: SN12C
NCI-H522 = test system: NCI-H522
SF-268 = test system: SF-268
Malme-3M = test system: Malme-3M
OVCAR-5 = test system: OVCAR-5
DLD-1 = test system: DLD-1
LOX IMVI = test system: LOX IMVI
NCI-H226 = test system: NCI-H226
SK-MEL-5 = test system: SK-MEL-5
TK-10 = test system: TK-10

For `CC1(C(=O)NCCN(CCNC(=O)C2(C)CC3(C)CC(C)(C2)C(=O)NC3=O)CCNC(=O)C2(C)CC3(C)CC(C)(C2)C(=O)NC3=O)CC2(C)CC(C)(C1)C(=O)NC2=O` (centres undefined), the GI50 (COLO 205) was > 100 µM (inactive), the GI50 (CCRF-CEM) was > 100 µM (inactive) and the GI50 (M14) was > 100 µM (inactive). The GI50 (SW-620) was > 100 µM (inactive), the GI50 (UACC-257) was > 100 µM (inactive) and the GI50 (UO-31) was > 100 µM (inactive). The GI50 (HOP-92) was < 0.01 µM (active), the GI50 (786-0) was > 100 µM (inactive) and the GI50 (NCI-H23) was > 100 µM (inactive). For the same compound, the GI50 (KM-20L2) was > 100 µM (inactive), the GI50 (LXFL 529) was > 100 µM (inactive) and the GI50 (CAKI-1) was > 100 µM (inactive). The GI50 (ACHN) was > 100 µM (inactive), the GI50 (SF-539) was > 100 µM (inactive) and the GI50 (NCI-H460) was > 100 µM (inactive). For the same compound, the GI50 (RPMI-8226) was > 100 µM (inactive), the GI50 (RXF 393) was > 100 µM (inactive) and the GI50 (SNB-78) was > 100 µM (inactive). The GI50 (DMS-114) was > 100 µM (inactive), the GI50 (K562) was > 100 µM (inactive) and the GI50 (EKVX) was > 100 µM (inactive). The GI50 (HL-60) was > 100 µM (inactive), the GI50 (SR) was > 100 µM (inactive) and the GI50 (UACC-62) was > 100 µM (inactive). The GI50 (HOP-62) was > 100 µM (inactive), the GI50 (HCC 2998) was > 100 µM (inactive) and the GI50 (M19-MEL) was > 100 µM (inactive). The GI50 (OVCAR-8) was > 100 µM (inactive), the GI50 (MOLT-4) was > 100 µM (inactive) and the GI50 (DMS-273) was > 100 µM (inactive). For the same compound, the GI50 (HT-29) was > 100 µM (inactive), the GI50 (HCT-116) was > 100 µM (inactive) and the GI50 (SNB-75) was > 100 µM (inactive). For the same compound, the GI50 (SK-MEL-2) was > 100 µM (inactive), the GI50 (SK-OV-3) was > 100 µM (inactive) and the GI50 (SK-MEL-28) was > 100 µM (inactive). The GI50 (KM12) was > 100 µM (inactive), the GI50 (IGROV-1) was > 100 µM (inactive) and the GI50 (HOP-18) was 94.4 µM (inactive). The GI50 (OVCAR-3) was > 100 µM (inactive), the GI50 (U-251) was > 100 µM (inactive) and the GI50 (A498) was > 100 µM (inactive). For the same compound, the GI50 (HCT-15) was over 100 µM, the GI50 (A549) was > 100 µM (inactive) and the GI50 (SNB-19) was > 100 µM (inactive). The GI50 (XF498) was > 100 µM (inactive), the GI50 (SF-295) was > 100 µM (inactive) and the GI50 (OVCAR-4) was > 100 µM (inactive). For the same compound, the GI50 (SN12C) was > 100 µM (inactive).
With `CCOC(=O)N1CCc2cc(OC)c(OC)cc2/C1=C/c1ccc(OC)c(OC)c1` the GI50 (COLO 205) was 37.8 µM (inactive), the GI50 (CCRF-CEM) was 29 µM (inactive) and the GI50 (M14) was 82.8 µM (inactive). The GI50 (SW-620) was 46.2 µM (inactive), the GI50 (UACC-257) was 37.2 µM (inactive) and the GI50 (UO-31) was 27.8 µM (inactive). For the same compound, the GI50 (HOP-92) was 30.5 µM (inactive), the GI50 (786-0) was 42.8 µM (inactive) and the GI50 (NCI-H23) was 36.1 µM (inactive). The GI50 (KM-20L2) was 38.3 µM (inactive), the GI50 (LXFL 529) was 34.6 µM (inactive) and the GI50 (ACHN) was 52.2 µM (inactive). For the same compound, the GI50 (SF-539) was > 100 µM (inactive), the GI50 (RPMI-8226) was 19.3 µM (inactive) and the GI50 (RXF 393) was 37.9 µM (inactive). For the same compound, the GI50 (SNB-78) was 38 µM (inactive), the GI50 (DMS-114) was 40 µM (inactive) and the GI50 (NCI-H522) was 40.1 µM (inactive). For the same compound, the GI50 (K562) was 35.5 µM (inactive), the GI50 (SF-268) was 79.6 µM (inactive) and the GI50 (EKVX) was 79.4 µM (inactive). For the same compound, the GI50 (HL-60) was 23.6 µM (inactive), the GI50 (SR) was 34.1 µM (inactive) and the GI50 (Malme-3M) was 20 µM (inactive). For the same compound, the GI50 (UACC-62) was 55.8 µM (inactive), the GI50 (OVCAR-5) was 94 µM (inactive) and the GI50 (HOP-62) was 84.5 µM (inactive). For the same compound, the GI50 (DLD-1) was 48.6 µM (inactive), the GI50 (LOX IMVI) was 52.2 µM (inactive) and the GI50 (HCC 2998) was 42.6 µM (inactive). For the same compound, the GI50 (M19-MEL) was 45.9 µM (inactive), the GI50 (OVCAR-8) was > 10 µM (inactive) and the GI50 (MOLT-4) was 33.2 µM (inactive). For the same compound, the GI50 (DMS-273) was 49.2 µM (inactive), the GI50 (NCI-H226) was 69.5 µM (inactive) and the GI50 (HT-29) was 28.4 µM (inactive). For the same compound, the GI50 (SK-MEL-5) was 20.9 µM (inactive), the GI50 (HCT-116) was 38.4 µM (inactive) and the GI50 (SNB-75) was 37.9 µM (inactive). The GI50 (SK-MEL-2) was 51.6 µM (inactive), the GI50 (SK-OV-3) was > 100 µM (inactive) and the GI50 (SK-MEL-28) was > 100 µM (inactive). For the same compound, the GI50 (KM12) was 45.3 µM (inactive), the GI50 (IGROV-1) was > 100 µM (inactive) and the GI50 (HOP-18) was > 100 µM (inactive). For the same compound, the GI50 (OVCAR-3) was 61.4 µM (inactive), the GI50 (TK-10) was > 100 µM (inactive) and the GI50 (U-251) was 44.5 µM (inactive). For the same compound, the GI50 (A498) was 56.4 µM (inactive), the GI50 (HCT-15) was 36.1 µM and the GI50 (A549) was 43.1 µM (inactive). For the same compound, the GI50 (SNB-19) was 58.3 µM (inactive), the GI50 (XF498) was 30 µM (inactive) and the GI50 (SF-295) was 52.2 µM (inactive). For the same compound, the GI50 (SN12C) was 35.6 µM (inactive).
